From patent US8912120B2, “Herbicidal compositions comprising 4-amino-3-chloro-5-fluoro-6-(4-chloro-2-fluoro-3-methoxyphenyl) pyridine-2-carboxylic acid or a derivative thereof and synthetic auxin herbicides” (Dow AgroSciences, LLC., priority 2012, dated 2014)
Counter-ions that a name gives are not always drawn. Like-named read-outs stand apart in the source and are kept apart here.

Legend:
SCPMA = assay: Example II: in-water applied herbicidal mixtures, transplanted paddy rice, SCPMA; type: in vivo
Protocol: (§1) The prepared mud was dispensed in 365 mL aliquots into 16-ounce (oz.) non-perforated plastic pots with a surface area of 86.59 square centimeters (cm^2) leaving a headspace of 3 centimeters (cm) in each pot Mud was allowed to dry overnight prior to planting or transplanting. Rice seeds were planted in Sun Gro MetroMix® 306 planting mixture, which typically has a pH of 6.0 to 6.8 and an organic matter content of about 30 percent, in plastic plug trays. Seedlings at the second or third leaf stage of growth were transplanted into 840 mL of mud contained in 32-oz. non-perforated plastic pots with a surface area of 86.59 cm^2 4 days prior to herbicide application. […] Nutrients were added as Osmocote® (19:6:12, N:P:K^+ minor nutrients) at 2 g per 16-oz. pot and 4 g per 32-oz. pot.
(§2) Applications were made by injecting with a pipetter appropriate amounts of the application solutions, individually and sequentially, into the aqueous layer of the paddy. Control plants were treated in the same manner with the solvent blank. Applications were made so that all treated plant material received the same concentrations of acetone and crop oil concentrate.

POLCO = assay: Example IV: postemergence foliar-applied herbicidal mixtures, cereal crops, POLCO; type: in vivo, Polygonum convolvulus (wild buckwheat); conditions: alone, 140 gai/ha, foliar, 20-22 days
Protocol: (§3) Seeds of the desired test plant species were planted in Sun Gro MetroMix 306 planting mixture, which typically has a pH of 6.0 to 6.8 and an organic matter content of about 30 percent, in plastic pots with a surface area of 103.2 square centimeters (cm^2). […] The plants were grown for 7-36 days in a greenhouse with an approximate 14 hour photoperiod which was maintained at about 18° C. during the day and 17° C. during the night.
(§4) Spray solutions of the second cereal herbicide and experimental compound mixtures were prepared by adding the stock solutions to the appropriate amount of dilution solution to form 12 mL spray solution with active ingredients in two- and three-way combinations.

ISCRU = assay: Example I: postemergence foliar-applied herbicidal mixtures, direct seeded rice, ISCRU; type: in vivo, Ischaemum rugosum (saramollagrass)
Protocol: (§6) The soil matrix was contained in plastic pots with a volume of 1 quart and a surface area of 83.6 square centimeters (cm^2). […] The plants were grown for 8-22 days in a greenhouse with an approximate 14 h photoperiod which was maintained at about 29° C. during the day and 26° C. during the night. Nutrients (Peters Excel® 15-5-15 5-Ca 2-Mg and iron chelate) were applied in the irrigation solution as needed and water was added on a regular basis. Supplemental lighting was provided with overhead metal halide 1000-Watt lamps as necessary. The plants were employed for testing when they reached the first through fourth true leaf stage.
(§7) Treatments consisted of the acid or esters of 4-amino-3-chloro-5-fluoro-6-(4-chloro-2-fluoro-3-methoxy-phenyl)pyridine-2-carboxylic acid (Compound A), each formulated as an SC (suspension concentrate), and various herbicidal components alone and in combination. Forms of compound A were applied on an acid equivalent basis.
(§8) For treatments comprised of formulated compounds, measured amounts of compounds were placed individually in 25 mL glass vials and diluted in a volume of 1.25% (v/v) Agri-Dex® crop oil concentrated to obtain 12× stock solutions. […] Application solutions were prepared by adding an appropriate amount of each stock solution (e.g., 1 mL) and diluted to the appropriate final concentrations with the addition of 10 mL of an aqueous mixture of 1.25% (v/v) crop oil concentrate so that the final spray solutions contained 1.25+/−0.05% (v/v) crop oil concentrate.
(§9) All stock solutions and applications solutions were visually inspected for compound compatibility prior to application. Spray solutions were applied to the plant material with an overhead Mandel track sprayer equipped with a 8002E nozzles calibrated to deliver 187 L/ha over an application area of 0.503 m^2 at a spray height of 18 to 20 inches (46 to 50 cm) above average plant canopy height. Control plants were sprayed in the same manner with the solvent blank.
(§10) The treated plants and control plants were placed in a greenhouse as described above and watered by sub-irrigation to prevent wash-off of the test compounds. After approximately 3 weeks, the condition of the test plants as compared with that of the untreated plants was determined visually and scored on a scale of 0 to 100 percent where 0 corresponds to no injury or growth inhibition and 100 corresponds to complete kill.
(§11) Colby's equation was used to determine the herbicidal effects expected from the mixtures (Colby, S. R. 1967. Calculation of the synergistic and antagonistic response of herbicide combinations. Weeds 15:20-22).
(§12) The following equation was used to calculate the expected activity of mixtures containing two active ingredients, A and B: Expected=A+B−(A×B/100)
(§13) A=observed efficacy of active ingredient A at the same concentration as used in the mixture.
(§14) B=observed efficacy of active ingredient B at the same concentration as used in the mixture.

ECHOR = assay: Example II: in-water applied herbicidal mixtures, transplanted paddy rice, ECHOR; type: in vivo, Echinochloa oryzoides (early watergrass); conditions: Echinochloa oryzoides; for pest or weed control at 140 g/ha / pest or weed control at 280 g/ha: 504 h, read-out: Visual Weed Control (%) Obs, 21 DAA
Protocol: as §1, §2

ECHCG [1] = assay: Example I: postemergence foliar-applied herbicidal mixtures, direct seeded rice, ECHCG
Protocol: as §6, §7, §8, §9, §10, §11, §12, §13, §14

VIOTR = assay: Example IV: postemergence foliar-applied herbicidal mixtures, cereal crops, VIOTR; type: in vivo, Viola tricolor (wild pansy); conditions: alone, 140 gai/ha, foliar, 20-22 days
Protocol: as §3, §4

CYPIR [2] = assay: Example II: in-water applied herbicidal mixtures, transplanted paddy rice, CYPIR; type: in vivo, Cyperus iria L. (flatsedge; conditions: 21 DAA; 560 gai/ha
CYPES = assay: Example I: postemergence foliar-applied herbicidal mixtures, direct seeded rice, CYPES; type: in vivo, Cyperus esculentus (yellow nutsedge)
Protocol: as §6, §7, §8, §9, §10, §11
The following equation was used to calculate the expected activity of mixtures containing two active ingredients, A and B: Expected=A+B−(A×B/100) […]

AMARE = assay: Example IV: postemergence foliar-applied herbicidal mixtures, weed control in cereal crops in the greenhouse, AMARE; type: in vivo, Amaranthus retroflexus (redroot pigweed); conditions: alone, 140 gai/ha, 20-22 days
Protocol: as §3, §4

CYPIR [3] = assay: Example I: postemergence foliar-applied herbicidal mixtures, direct seeded rice, CYPIR; type: in vivo, Cyperus iria (rice flatsedge)
DIGSA = assay: Example I: postemergence foliar-applied herbicidal mixtures, direct seeded rice, DIGSA; conditions: 560 gai/ha
SIDSP = assay: Example V: postemergence herbicidal activity of mixtures in forage crops, SIDSP; type: in vivo, Sida spinosa (prickly sida); conditions: alone, 50 gae/ha, foliar, approximately 21 days
Protocol: as §3, with “Seeds or root cuttings” for “Seeds”, “MetroMix®” for “MetroMix”, “126.6” for “103.2”, “14-60” for “7-36”, “approximately 28°” for “about 18°”, “24°” for “17°”
(§5) Spray solutions of the second herbicide or experimental compound mixtures were prepared by adding the stock solutions to the appropriate amount of dilution solution to form 12 mL spray solution with active ingredients in two-way combinations.

ECHCG [4] = assay: Example II: in-water applied herbicidal mixtures, transplanted paddy rice, ECHCG; type: in vivo, Echinochloa crus-galli (barnyardgrass); conditions: 21 DAA
Protocol: as §1, §2

SINAR = assay: Example V: postemergence herbicidal activity of mixtures in forage crops, SINAR; type: in vivo, Sinapis arvensis (wild mustard); conditions: alone, 50 gae/ha, foliar, approximately 21 days
Protocol: as §3, with “Seeds or root cuttings” for “Seeds”, “MetroMix®” for “MetroMix”, “126.6” for “103.2”, “14-60” for “7-36”, “approximately 28°” for “about 18°”, “24°” for “17°”
as §5

ECHCO = assay: Example I: postemergence foliar-applied herbicidal mixtures, direct seeded rice, ECHCO
Protocol: as §6, §7, §8, §9, §10, §11, §12, §13, §14

CASOB = assay: Example V: postemergence herbicidal activity of mixtures in forage crops (greenhouse), CASOB; type: in vivo, Cassia obtusifolia (sicklepod); conditions: alone, 50 gae/ha, foliar, approximately 21 days
Protocol: as §3, with “Seeds or root cuttings” for “Seeds”, “MetroMix®” for “MetroMix”, “126.6” for “103.2”, “14-60” for “7-36”, “approximately 28°” for “about 18°”, “24°” for “17°”
as §5

LEFCH = assay: Example I: postemergence foliar-applied herbicidal mixtures, direct seeded rice, LEFCH; type: in vivo, Leptochloa chinensis (Chinese sprangletop)
SOOSS = assay: Example V: postemergence herbicidal activity of mixtures in forage crops, SOOSS; type: in vivo, Solidago L. spec. (goldenrod); conditions: alone, 70 gae/ha, foliar, approximately 21 days
Protocol: as §3, with “Seeds or root cuttings” for “Seeds”, “MetroMix®” for “MetroMix”, “126.6” for “103.2”, “14-60” for “7-36”, “approximately 28°” for “about 18°”, “24°” for “17°”
as §5

CIRAR = assay: Example V: postemergence herbicidal activity of mixtures in forage crops, CIRAR; type: in vivo, Cirsium arvense (Canada thistle); conditions: alone, 70 gae/ha, foliar, approximately 21 days
Protocol: as §3, with “Seeds or root cuttings” for “Seeds”, “MetroMix®” for “MetroMix”, “126.6” for “103.2”, “14-60” for “7-36”, “approximately 28°” for “about 18°”, “24°” for “17°”
as §5

TRFRE = assay: Example V: postemergence herbicidal activity of mixtures in forage crops, TRFRE; type: in vivo, Trifolium repens (white clover); conditions: alone, foliar, approximately 21 days
Protocol: as §3, with “Seeds or root cuttings” for “Seeds”, “MetroMix®” for “MetroMix”, “126.6” for “103.2”, “14-60” for “7-36”, “approximately 28°” for “about 18°”, “24°” for “17°”
as §5

SONAR = assay: Example V: postemergence herbicidal activity of mixtures in forage crops, SONAR; type: in vivo, Sonchus arvensis (field sowthistle); conditions: alone, foliar, approximately 21 days
Protocol: as §3, with “Seeds or root cuttings” for “Seeds”, “MetroMix®” for “MetroMix”, “126.6” for “103.2”, “14-60” for “7-36”, “approximately 28°” for “about 18°”, “24°” for “17°”
as §5

CENMA = assay: Example V: postemergence herbicidal activity of mixtures in forage crops, CENMA; type: in vivo, Centaurea maculosa (spotted knapweed); conditions: alone, foliar, approximately 21 days
Protocol: as §3, with “Seeds or root cuttings” for “Seeds”, “MetroMix®” for “MetroMix”, “126.6” for “103.2”, “14-60” for “7-36”, “approximately 28°” for “about 18°”, “24°” for “17°”
as §5

SMILES: O=C(O)c1c(Cl)ccc2cc(Cl)cnc12 [Quinclorac, 3,7-dichloro-8-quinolinecarboxylic acid]
- Visual Weed Control (%) Obs (SCPMA; 20 DAA, 560 gai/ha): 0%
- POLCO Ob (observed value) (POLCO): 3%
- Visual Weed Control (%) - 21 DAA ISCRU Obs (ISCRU; 140 gai/ha): 0%
- Visual Weed Control (%) - 21 DAA ISCRU Obs (ISCRU; 280 gai/ha): 0%
- Visual Weed Control (%) - 21 DAA ISCRU Obs (ISCRU; 560 gai/ha): 0%
- pest or weed control at 560 g/ha (ECHOR; 480 h, 20 DAA, 560 gai/ha, read-out: Visual Weed Control (%) Obs): 20%
- Visual Weed Control (%) - 21 DAA ECHCG Obs (ECHCG [1]; 70 gai/ha): 15%
- Visual Weed Control (%) - 21 DAA ECHCG Obs (ECHCG [1]; 140 gai/ha): 30%
- Visual Weed Control (%) - 21 DAA ECHCG Obs (ECHCG [1]; 280 gai/ha): 30%
- VIOTR Ob (observed value) (VIOTR): 0%
- Visual Weed Control (%) Obs (CYPIR [2]): 0%
- Visual Weed Control (%) - 21 DAA CYPES Obs (CYPES; 70 gai/ha): 0%
- Visual Weed Control (%) - 21 DAA CYPES Obs (CYPES; 140 gai/ha): 0%
- Visual Weed Control (%) - 21 DAA CYPES Obs (CYPES; 280 gai/ha): 0%
- AMARE Ob (observed value) (AMARE): 27%
- Visual Weed Control (%) - 21 DAA CYPIR Obs (CYPIR [3]; 70 gai/ha): 0%
- Visual Weed Control (%) - 21 DAA CYPIR Obs (CYPIR [3]; 140 gai/ha): 0%
- Visual Weed Control (%) - 21 DAA CYPIR Obs (CYPIR [3]; 280 gai/ha): 0%
- Visual Weed Control (%) - 20 DAA DIGSA Obs (DIGSA): 8%
- Visual Weed Control (%) - 21 DAA DIGSA Obs (DIGSA): 8%

SMILES: COc1c(Cl)ccc(Cl)c1C(=O)O [Dicamba DMA Salt, 3,6-dichloro-2-methoxybenzoic acid compound with N-methylmethanamine, reference compound]
- SIDSP Obs (observed value) (SIDSP): 25%
- Visual Weed Control (%) Obs (SCPMA; 21 DAA, 140 gae/ha): 0%
- Visual Weed Control (%) Obs (SCPMA; 21 DAA, 140 gai/ha): 0%
- Visual Weed Control (%) Obs (SCPMA; 21 DAA, 280 gae/ha): 0%
- Visual Weed Control (%) Obs (ECHCG [4]; 140 gae/ha): 0%
- Visual Weed Control (%) Obs (ECHCG [4]; 280 gae/ha): 10%
- pest or weed control at 140 g/ha (ECHOR; 140 gae/ha): 10%
- pest or weed control at 140 g/ha (ECHOR; 140 gai/ha): 10%
- pest or weed control at 280 g/ha (ECHOR; 280 gae/ha): 15%
- pest or weed control at 280 g/ha (ECHOR; 280 gai/ha): 15%
- SINAR Obs (observed value) (SINAR): 65%
- Visual Weed Control (%) - 20 DAA ECHCO Obs (ECHCO; 70 gae/ha): 0%
- Visual Weed Control (%) - 20 DAA ECHCO Obs (ECHCO; 140 gae/ha): 0%
- Visual Weed Control (%) - 20 DAA ECHCO Obs (ECHCO; 280 gae/ha): 0%
- CASOB Obs (observed value) (CASOB): 20%
- Visual Weed Control (%) - 20 DAA LEFCH Obs (LEFCH; 140 gae/ha): 0%
- Visual Weed Control (%) - 20 DAA LEFCH Obs (LEFCH; 280 gae/ha): 0%
- Visual Weed Control (%) - 20 DAA CYPIR Obs (CYPIR [3]; 70 gae/ha): 0%
- Visual Weed Control (%) - 20 DAA CYPIR Obs (CYPIR [3]; 140 gae/ha): 0%
- Visual Weed Control (%) - 20 DAA CYPIR Obs (CYPIR [3]; 280 gae/ha): 35%

SMILES: CCCCCCC(C)OC(=O)COc1nc(F)c(Cl)c(N)c1Cl (stereo not drawn) [Fluroxypyr ME]
- SOOSS Obs (observed value) (SOOSS): 50%
- CIRAR Obs (observed value) (CIRAR): 10%
- TRFRE Obs (observed value) (TRFRE; 35 gae/ha): 15%
- TRFRE Obs (observed value) (TRFRE; 70 gae/ha): 20%
- SONAR Obs (observed value) (SONAR; 35 gae/ha): 0%
- SONAR Obs (observed value) (SONAR; 70 gae/ha): 15%
- CENMA Obs (observed value) (CENMA; 35 gae/ha): 0%
- CENMA Obs (observed value) (CENMA; 70 gae/ha): 0%
